According to patent US10307431B2, “Lyophilized cyclophosphamide composition and methods of preparation thereof” (priority 2017, dated 2019):
Like-named read-outs stand apart in the source and are kept apart here.

How the values were obtained:
[1] = bulk solution maintained at 5° C. to 15° C., such as 12° C.±3° C., for an extended period of time
[2] = background, prior art, cited from earlier work

## O=P1(N(CCCl)CCCl)NCCCO1 (stereo not drawn) [cyclophosphamide, 2-[bis(2-chloroethyl)amino]tetrahydro-2H-1,3,2-oxazaphosphorine 2-oxide]
[1]
  degradation in bulk solution: significant degradation

## O=P1(N(CCCl)CCCl)NCCCO1 (stereo not drawn) [anhydrous form, cyclophosphamide anhydrous]
[2]
  stability as reported: highly unstable

## O=P1(N(CCCl)CCCl)NCCCO1 (stereo not drawn) [monohydrate drug form, cyclophosphamide monohydrate]
[2]; monohydrate
  stability as reported: stable
